System: Setaria lutescens
Assay: Herbicidal action (field trials), post-emergence treatment, visual scoring of damage
Assay type: in vivo
Procedure: The seeds or rhizome pieces of typical harmful plants were planted and grown under natural field conditions. After the harmful plants had emerged, they were treated, as a rule at the 2-to 8-leaf stage, with various dosages of the compositions according to the invention at a water application rate of 100 to 400 I/ha (converted).
After the treatment (approx. 4-6 weeks after application), the herbidical activity of the active ingredients or active ingredient mixtures was scored visually by comparing the treated plots with the untreated control plots. Damage and development of all aerial parts of the plants was recorded. Scoring was done on a percentage scale (100% action=all plants dead; 50% action=50% of the plants and green plant parts dead; 0% action=no discernible action=like control plot). The score figures of in each case 4 plots was averaged.
The results are shown in the tables which follow, the action when using active ingredients A and B independently being stated in brackets.

COc1cc(OC)nc(NC(=O)NS(=O)(=O)c2cc(NC=O)ccc2C(=O)N(C)C)n1 [A1.1, N-[N-(4,6-dimethoxypyrimidin-2-yl)-aminocarbonyl]-2-(dimethyl-aminocarbonyl)-5-(formylamino)benzenesulfonamide]
Herbicidal effect on Setaria lutescens Damage in % (Table 1, 35 gAS/ha, treatment at the 6-8 leaf stage, scoring 27 days after application): 30%
Herbicidal effect on Setaria lutescens Damage in % (Table 1, 70 gAS/ha, treatment at the 6-8 leaf stage, scoring 27 days after application): 97%
Herbicidal effect on Setaria lutescens Damage in % (Table 2, 35 gSA/ha, treatment at the 6-8 leaf stage, scoring 27 days after application): 30%
Herbicidal effect on Setaria lutescens Damage in % (Table 2, 70 gSA/ha, treatment at the 6-8 leaf stage, scoring 27 days after application): 97%
Herbicidal effect on Setaria lutescens Damage in % (Table 3, 35 gAS/ha, treatment at the 2-leaf stage, scoring 39 days after application): 65%
Herbicidal effect on Setaria lutescens Damage in % (Table 3, 70 gAS/ha, treatment at the 2-leaf stage, scoring 39 days after application): 87%
Herbicidal effect on Setaria lutescens Damage in % (Table 4, 35 gAS/ha, treatment at the 6-8 leaf stage, scoring 27 days after application): 65%
Herbicidal effect on Setaria lutescens Damage in % (Table 4, 70 gAS/ha, treatment at the 6-8 leaf stage, scoring 27 days after application): 85%

CS(=O)(=O)NC(=O)c1cc(Oc2ccc(C(F)(F)F)cc2Cl)ccc1[N+](=O)[O-] [Fumesafen (B2.9), 5-(2-chloro-α,α,α-trifluoro-p-tolyloxyl)N-methylsulfonyl-2-nitrobenzamide, reference compound]
Herbicidal effect on Setaria lutescens Damage in % (Table 3, 240 gAS/ha, treatment at the 2-leaf stage, scoring 39 days after application): 25%

COc1cc(OC)nc(Sc2cccc(Cl)c2C(=O)[O-])n1.[Na+] [Pyrithiobac (B2.7), sodium 2-chloro-6-(4,6-dimethoxypyrimidin-2-ylthio)benzoate, reference compound]
Herbicidal effect on Setaria lutescens Damage in % (Table 4, 105 gAS/ha, treatment at the 6-8 leaf stage, scoring 27 days after application): 25%

CCOc1nc(NC)nc(NC(=O)NS(=O)(=O)c2ccccc2C(=O)OC)n1 [ethametsulfuron (B2.6), methyl 2-{N-[N-(4-ethoxy-6-methylamino-1,3,5-triazin-2-yl)-aminocarbonyl]-aminosulfonyl}benzoate, reference compound]
Herbicidal effect on Setaria lutescens Damage in % (Table 1, 15 gAS/ha, treatment at the 6-8 leaf stage, scoring 27 days after application): 33%

Reference: patent US6498126B1, “Herbicide combination with acylated aminophenylsulfonylureas” (Aventis CropScience GmbH, priority 1999, dated 2002)
